Where “and” joins values, the source holds several entries; their conditions need not be identical. Equal values may be shown once.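 Each compound was tested at five concentrations against cells in 96-well plates for 48 hours. Here, GI50 denotes the concentration required for 50% inhibition of growth. TGI: total growth inhibition.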

Some test systems named below: A549 NSCLC; HCT-15 colon; HT29 colon; IGROV1 ovarian; K-562 leukemia; M14 melanoma; NCI-H226 lung; NCI-H23 lung; RPMI-8226 leukemia; SK-MEL-2 melanoma.
Common to all, as to test: NCI tumour cell line growth inhibition, 48 h

In the case of `COc1cc(F)c(F)cc1C(=O)c1cnc(NC2CCN(S(C)(=O)=O)CC2)nc1N`, the GI50 in the experiment on A549 NSCLC was 3.18 µM; with HCT-15 colon, 3.46 µM; in the experiment on HT29 colon, 3.7 µM; in the experiment on IGROV1 ovarian, 5.11 µM; with K-562 leukemia it was 7.29 µM; in the experiment on M14 melanoma, 4.73 µM. Moreover, the GI50 in the experiment with NCI-H226 lung is 3.1 µM; with NCI-H23 lung, 2.62 µM; in the experiment with RPMI-8226 leukemia it was 3.66 µM; in the experiment with SK-MEL-2 melanoma, 3.86 µM. Further, the TGI was over 25 µM with A549 NSCLC; over 25 µM in the experiment on HCT-15 colon; over 25 µM in the experiment with HT29 colon; 24.5 µM in the experiment on IGROV1 ovarian; over 25 µM in the experiment with K-562 leukemia; over 25 µM with M14 melanoma. Moreover, the TGI is 22 µM in the experiment with NCI-H226 lung, over 18 µM in the experiment on NCI-H23 lung, over 16.2 µM in the experiment with RPMI-8226 leukemia and 12.6 µM with SK-MEL-2 melanoma.
On to `Cc1ccccc1-n1c(=S)[nH]c2c(sc(=O)n2-c2ccccc2C)c1=O`, for which the TGI in the experiment with A549 NSCLC, in the experiment on HCT-15 colon, in the experiment with HT29 colon, in the experiment with IGROV1 ovarian, with K-562 leukemia and with M14 melanoma was over 100 µM each time. In addition, the TGI in the experiment with NCI-H226 lung, in the experiment on NCI-H23 lung, with RPMI-8226 leukemia and with SK-MEL-2 melanoma was over 100 µM throughout.
In the case of `Cc1ccc2oc(=O)c3c(O)c4cccc(OC5OC(C)C6O[C@@H](c7ccccc7)OC6C5OC5OC(C)C(O)C(O)C5O)c4c4oc(=O)c1c2c34` (stereo partly specified), the GI50 with A549 NSCLC is 0.0214 µM; with HCT-15 colon, 0.261 µM; in the experiment on IGROV1 ovarian, 0.0315 µM; with K-562 leukemia, 0.0708 µM; in the experiment with M14 melanoma it was 0.409 µM; in the experiment on NCI-H23 lung, 0.0307 µM. The TGI in the experiment with A549 NSCLC is 0.521 µM and 0.924 µM; with HCT-15 colon, 1.5 µM and 5.01 µM; in the experiment on HT29 colon it was 5.12 µM; in the experiment with IGROV1 ovarian, 1.39 µM and 1.32 µM; in the experiment with K-562 leukemia, 2.6 µM; in the experiment on M14 melanoma, 1.85 µM and 1.64 µM. Besides, the TGI amounted to 0.211 µM in the experiment on NCI-H226 lung, 0.276 µM in the experiment on NCI-H23 lung, 0.888 µM in the experiment with RPMI-8226 leukemia and 1.68 µM with SK-MEL-2 melanoma.
Consider `CC12CCC(=O)C(O1)C1C(=O)c3ccc4c(ccc5ccccc54)c3C(=O)C12` (stereo unspecified), for which the GI50 with A549 NSCLC is 9.34 µM; in the experiment with HCT-15 colon it was 14.2 µM; with HT29 colon, 13.2 µM; in the experiment with IGROV1 ovarian, 7.09 µM; with K-562 leukemia, 1.72 µM; in the experiment with M14 melanoma it was 12.2 µM. In addition, the GI50 with NCI-H226 lung was 5.78 µM; in the experiment on NCI-H23 lung, 4.15 µM; in the experiment with RPMI-8226 leukemia, 1.21 µM; with SK-MEL-2 melanoma, 10 µM. Further, the TGI was 33.2 µM with A549 NSCLC; 30.6 µM in the experiment with HCT-15 colon; over 100 µM in the experiment on HT29 colon; over 100 µM in the experiment on IGROV1 ovarian; 7.3 µM with K-562 leukemia; 30.6 µM in the experiment on M14 melanoma. Besides, the TGI in the experiment with NCI-H226 lung was 12.7 µM; in the experiment with NCI-H23 lung it was 8.35 µM; with RPMI-8226 leukemia, over 21.5 µM; in the experiment on SK-MEL-2 melanoma, over 28.6 µM.
`O=C1C=CC(=O)c2c1ccc1c3ccccc3n(Cc3ccccc3)c21`: the TGI is over 100 µM in the experiment on A549 NSCLC; 46.2 µM in the experiment on HCT-15 colon; 57 µM in the experiment with HT29 colon; 46.2 µM in the experiment with IGROV1 ovarian; 10.6 µM in the experiment on K-562 leukemia; 42 µM in the experiment with M14 melanoma. The TGI in the experiment on NCI-H226 lung was 24.7 µM; in the experiment on NCI-H23 lung it was 42.7 µM; in the experiment with RPMI-8226 leukemia, 34.6 µM; in the experiment with SK-MEL-2 melanoma it was 99.6 µM.
`O=C1OC(=O)C23CSCC12C1C=CC3O1` (stereo unspecified): the TGI in the experiment with A549 NSCLC, in the experiment with HCT-15 colon, in the experiment on HT29 colon, in the experiment with IGROV1 ovarian, with K-562 leukemia and with M14 melanoma was over 100 µM throughout. Also, the TGI with NCI-H226 lung, with NCI-H23 lung, in the experiment with RPMI-8226 leukemia and with SK-MEL-2 melanoma was over 100 µM throughout.
In the case of `COc1ccc(N2C(=O)[C@@H](N=[N+]=[N-])[C@@H]2[C@H]2COC(C)(C)O2)cc1`, the TGI in the experiment on A549 NSCLC, in the experiment with HCT-15 colon, with HT29 colon, with IGROV1 ovarian, in the experiment on K-562 leukemia and in the experiment on M14 melanoma was over 100 µM throughout. Besides, the TGI with NCI-H226 lung, in the experiment with NCI-H23 lung, with RPMI-8226 leukemia and in the experiment on SK-MEL-2 melanoma was over 100 µM each time.
Take `CCC1CCCCN1CC(C(C)=O)C(c1ccccc1)c1c(O)c2ccccc2oc1=O` (stereo unspecified): the TGI with A549 NSCLC, with HCT-15 colon, in the experiment on HT29 colon, with IGROV1 ovarian, with K-562 leukemia and with M14 melanoma was over 100 µM in each case. Moreover, the TGI in the experiment with NCI-H226 lung, in the experiment on NCI-H23 lung, with RPMI-8226 leukemia and with SK-MEL-2 melanoma was over 100 µM in each case.
As to `O=C1OCC2=C1C(c1cccc(C(F)(F)F)c1)c1cc3c(cc1N2CCO)OCCO3` (stereo unspecified), the GI50 was 1.53 µM in the experiment on A549 NSCLC; 0.967 µM in the experiment with HCT-15 colon; 1.09 µM in the experiment on HT29 colon; 2.75 µM in the experiment with IGROV1 ovarian; 0.881 µM in the experiment on K-562 leukemia; 0.967 µM with M14 melanoma. Also, the GI50 with NCI-H226 lung is over 33.3 µM; in the experiment on NCI-H23 lung, 1.78 µM; with RPMI-8226 leukemia it was 1.39 µM; in the experiment with SK-MEL-2 melanoma, 1.99 µM. The TGI in the experiment with A549 NSCLC, with HCT-15 colon, in the experiment on HT29 colon, in the experiment on IGROV1 ovarian, in the experiment on K-562 leukemia and in the experiment on M14 melanoma was over 33.3 µM throughout. Also, the TGI with NCI-H226 lung, with NCI-H23 lung, with RPMI-8226 leukemia and in the experiment on SK-MEL-2 melanoma was over 33.3 µM each time.
As for `CC(=O)c1c[nH]c2ccc(-c3ccnc(Nc4ccc(NC(=O)C5CCCC5)c(CN5CCOCC5)c4)n3)cc12`, the GI50 with A549 NSCLC was 0.0312 µM; in the experiment with HCT-15 colon it was 0.0558 µM; with HT29 colon, 0.0226 µM; in the experiment on IGROV1 ovarian, 0.0366 µM; in the experiment on K-562 leukemia, 0.041 µM; with M14 melanoma it was 0.0274 µM. The GI50 in the experiment with NCI-H226 lung is 0.0298 µM; in the experiment on NCI-H23 lung, 0.0344 µM; in the experiment on RPMI-8226 leukemia, 0.045 µM; in the experiment with SK-MEL-2 melanoma, 0.0222 µM. Besides, the TGI in the experiment with A549 NSCLC was 1.54 µM; in the experiment on HCT-15 colon it was 0.758 µM; in the experiment on HT29 colon it was 2.25 µM; in the experiment with IGROV1 ovarian, 0.377 µM; with K-562 leukemia it was over 100 µM; in the experiment with M14 melanoma, 0.0955 µM. Also, the TGI is 0.284 µM in the experiment on NCI-H226 lung, 0.364 µM in the experiment on NCI-H23 lung, 0.262 µM in the experiment on RPMI-8226 leukemia and 0.0585 µM with SK-MEL-2 melanoma.
Regarding `O=C(c1ccccc1)c1nnn(Cc2ccccc2Cn2nnc(C(=O)c3ccccc3)c2C(=O)c2ccccc2)c1C(=O)c1ccccc1`, the TGI with A549 NSCLC, in the experiment on HCT-15 colon, in the experiment on HT29 colon, with IGROV1 ovarian, in the experiment on K-562 leukemia and with M14 melanoma was over 100 µM each time. Moreover, the TGI in the experiment on NCI-H226 lung, with NCI-H23 lung, with RPMI-8226 leukemia and with SK-MEL-2 melanoma was over 100 µM each time.
